Test results as given in PMC10011747, “Targeting androgen receptor and the variants by an orally bioavailable Proteolysis Targeting Chimeras compound in castration resistant prostate cancer” (eBioMedicine, 2023).

Experiments:
[1] = Metabolic stability in liver microsomes; type: in vitro ADME; settings: pooled liver microsomes, pH 7.4, mouse CD-1 liver microsome 0.8 mg/mL, read-out: MLM stability T1/2
Procedure: The mouse CD-1 pooled liver microsome (Corning Product ID: 452701, Lot: 0010003) was used to test compound stability. The reaction was carried out in 100 mM, pH 7.4 phosphate buffer containing microsome (0.8 mg/mL), NADP^+ (1.3 mM), glucose-6-phosphate (3.3 mM), glucose-6-phosphate dehydrogenase (0.4 U/mL), magnesium chloride (3.3 mM) and the test article (1 μM) with 1% (v/v) final concentration of DMSO. The reaction was incubated at 37 °C with shaking. At 0, 10, 20, and 30 min time points, 20 μL of the reaction mixture was taken and quenched immediately with 120 μL acetonitrile. The quenched sample were centrifuged, and the supernatant was then analyzed by LC-MS/MS (ABI4000Q-TRAP). 1 μM warfarin and 1 μM verapamil with same reaction conditions was used as negative and positive control, respectively.

[2] = system: AR-negative PC3 prostate cancer model; experiment: PC3 xenograft negative control study; type: in vivo, mouse; settings: PO 100 mg/kg twice daily
Procedure: Immunodifficient male C.B-17 SCID mice (NOD.CB17-Prkdc^scid/NcrCrlBltw) at 4–6 weeks of age were purchased from BioLASCO Taiwan Co., Ilan, Taiwan. All mice were housed in conventional cages in the AAALAC Full Accreditation (2011) in Industrial Technology Research Institute and were allowed to acclimatize and recover from shipping-related stress for one week prior to the study. The health of the mice was monitored by daily observations. Animals were kept in rooms at temperature of 22–26 °C with 40–70% humidity, positive pressure, 60% air recirculation, ventilation rate 15–20 changes per hour, and a controlled light–dark cycle (12–12 h). […] Tumors were measured with calipers, and tumor size was calculated as follows: tumor volume (V) = (L × S^2)/2 (L, longest diameter, mm; S, shortest diameter, mm). […] Tumor size and body weight of the animals were monitored and recorded two to three times per week. […] The drug antitumor efficacy was presented as percentages of TGI of each tested animal, calculated as follows: [1 − (final tumor volume − initial tumor volume of the treated group)/average of (final tumor volume − initial tumor volume of the vehicle group)] × 100. Body weight of each mouse was also compared to that on the first day of treatment (day 0) and expressed as a percentage of day 0 value. […]
Figure S15. […] (a) CWR22Rv1 and PC3 cell viability was detected upon 7 days treatment of ITRI-90. […]

AR-negative PC3 cells = experiment: Cell viability, PC3; type: cell-based, human; settings: 7 days treatment
Procedure: (§1) Cells were seeded in triplicate in 96-well plates 1 day prior to drug treatment for all assays. For viability test and IC50 assessment, the alamarBlue™ Cell Viability Reagent (Thermo Fisher Scientific) was added to cells 7 days after PROTAC treatment, followed by fluorescence detection as the manufacturer instructed. The IC50 was calculated by dose-inhibition regression. For proliferation monitoring, 2, 4, 6 and 8 days after PROTAC treatment (day 0), viable cells were detected by MTT Cell Proliferation Kit I (Sigma–Aldrich) according to the manufacturer's instructions. Cellular caspase activity was measured by Caspase-Glo 3/7 Assay System (Promega) 1 or 2 days after the drug treatment.
Figure S15. ITRI-90 is ineffective for AR-n egative PC3 cells. (a) CWR22Rv1 and PC3 cell viability was detected upon 7 days treatment of ITRI-90. (b,c) Antitumor activity of ITRI -90 towards PC3 tumor xenografts.
PC3 tumor xenografts implanted in SCID mice were treated with ITRI-90 orally using 100 mg/kg twice daily dosing. The numbers of tumor in each group is as indicated. (b) Scatter plots of the tumor size. (c) Western blotting of AR and AR -V proteins in the tumors collected at the final time points. CWR22Rv1 xenograft samples from Figure 7i were used as positive control for AR and AR-V expression.
(1 picture or pasted object on this page, not shown here)

caspase 3/7 = experiment: Caspase-Glo 3/7 activity; type: cell-based, human; settings: 5 μM LNCaP, 1 μM CWR22Rv1, two days after treatment
Procedure: as §1

| Structure (SMILES) | half-life at 1 μM [1] | antitumor activity towards PC3 tumor xenografts [2] | PC3 cell viability (AR-negative PC3 cells) | caspase 3/7 activity at lower concentrations (caspase 3/7) |
| --- | --- | --- | --- | --- |
| Cc1ncsc1-c1ccc(CNC(=O)[C@@H]2C[C@H](O)CN2C(=O)[C@@H](NC(=O)COCCCCOc2ccc(C3CCN(C4=Nn5c(nnc5C(F)(F)F)CC4)CC3)cc2)C(C)(C)C)cc1 [ITRI-90, (2S,4S)-1-((S)-3,3-dimethyl-2-(2-(4-(4-(1-(3-(trifluoromethyl)-7,8-dihydro-[1,2,4]triazolo[4,3-b]pyridazin-6-yl)piperidin-4-yl)phenoxy)butoxy)acetamido)butanoyl)-4-hydroxy-N-(4-(4-methylthiazol-5-yl)benzyl)pyrrolidine-2-carboxamide] | > 30 min | ineffectiveness | ineffective |  |
| Cc1ncsc1-c1ccc(CNC(=O)[C@@H]2C[C@H](O)CN2C(=O)[C@@H](NC(=O)COCCCCCCOc2ccc(C3CCN(C4=Nn5c(nnc5C(F)(F)F)CC4)CC3)cc2)C(C)(C)C)cc1 [ITRI-125, (2S,4S)-1-((S)-3,3-dimethyl-2-(2-(6-(4-(1-(3-(trifluoromethyl)-7,8-dihydro-[1,2,4]triazolo[4,3-b]pyridazin-6-yl)piperidin-4-yl)phenoxy)hexyloxy)acetamido)butanoyl)-4-hydroxy-N-(4-(4-methylthiazol-5-yl)benzyl)pyrrolidine-2-carboxamide] | > 30 min |  |  |  |
| O=C1CCC(N2Cc3c(NC(=O)COCCCCOc4ccc(C5CCN(C6=Nn7c(nnc7C(F)(F)F)CC6)CC5)cc4)cccc3C2=O)C(=O)N1 (centres unmarked) [ITRI-126, N-(2-(2,6-dioxopiperidin-3-yl)-1-oxoisoindolin-4-yl)-2-(4-(4-(1-(3-(trifluoromethyl)-7,8-dihydro-[1,2,4]triazolo[4,3-b]pyridazin-6-yl)piperidin-4-yl)phenoxy)butoxy)acetamide] |  |  |  | induced strong caspase activity two days after drug treatment |
